Measured values reported in patent US6218393A, “Anthranilic acid derivatives as multi drug resistance modulators” (priority 1997, dated 2001).

Tests used:
AR 1.0 cells [1] = test: Drug accumulation assay: daunorubicin accumulation in AR 1.0 cells; format: cell-based; conditions: Mus musculus, 100% = accumulation with verapamil 100 μM, 1 hr, 37° C.
Method in brief: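 AR 1.0 is the MDR-resistant subline of EMT6 mouse mammary carcinoma, grown in RPMI 1640 with 10% foetal calf serum and 2 mM glutamine at 37 °C, 5% CO2. Cells were seeded 48 h before the daunorubicin accumulation assay.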

AR 1.0 cells [2] = test: Potentiation index with doxorubicin titration; format: cell-based, mouse; conditions: for Potentiation Index at RMA concentration 10 nM: Table C2, RMA 10 nM; for Potentiation Index at RMA concentration 30 nM: Table C2, RMA 30 nM
Method in brief: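 MDR-resistant mouse EMT6 subline AR 1.0 grown four days with a doxorubicin titration (0.263 nM-17.24 μM) plus a fixed compound concentration; proliferation by sulphorhodamine B. Potentiation index derived from doxorubicin IC50 alone versus with compound.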

AR 1.0 cells [3] = test: Potentiation of doxorubicin toxicity: proliferation assay (sulphorhodamine B); format: cell-based, mouse; conditions: Mus musculus, 96 h; compound alone; four day proliferation; read-out: Compound Toxicity (IC50)
Description: (a) Selected compounds of formula (I) were examined for their ability to potentiate the toxicity of doxorubicin in AR 1.0 cells.

Structure (SMILES) | IC50 (AR 1.0 cells [1]) [nM] | Potentiation Index at RMA concentration 10 nM (AR 1.0 cells [2]) | Potentiation Index at RMA concentration 30 nM (AR 1.0 cells [2]) | IC50 (AR 1.0 cells [3]) [nM]
COc1cc2c(cc1OC)CN(CCc1ccc(NC(=O)c3cc(C)ccc3NC(=O)c3cnc4ccccc4c3)cc1)CC2 [compound 9584, Quinoline-3-carboxylic acid (2,-{4-[2-(6,7-dimethoxy-3,4-dihydro-1H-isoquinolin-2-yl)-ethyl]-phenylcarbamoyl}-4-methyl-phenyl)-amide] | 360 | 2.1 | 36 | 8600
COc1cc2c(cc1OC)CN(CCc1ccc(NC(=O)c3ccc(Cl)cc3NC(=O)c3cnc4ccccc4c3)cc1)CC2 [compound 9586, Quinoline-3-carboxylic acid (2-{4-[2-(6,7-dimethoxy-3,4-dihydro-1H-isoquinolin-2-yl)-ethyl]-phenylcarbamoyl}-5-chloro-phenyl)-amide] | 180 | 5 | 6 | 7400
COc1cc2c(cc1OC)CN(CCc1ccc(NC(=O)c3ccc(N)cc3NC(=O)c3cnc4ccccc4c3)cc1)CC2 [compound 9589, Quinoline-3-carboxylic acid (2-{4-[2-(6,7-dimethoxy-3,4-dihydro-1H-isoquinolin-2-yl)-ethyl]-phenylcarbamoyl}-5-amino-phenyl)-amide] | 1000 | 1 | 1 | 36800
COc1cc2c(cc1OC)CN(CCc1ccc(NC(=O)c3ccccc3NC(=O)c3cnc4c(c3)CCCC4)cc1)CC2 [compound 9590, 5,6,7,8-Tetrahydroquinoline-3-carboxylic acid (2-{4-[2-(6,7-dimethoxy-3,4-dihydro-1H-isoquinolin-2-yl)-ethyl]-phenylcarbamoyl}-phenyl)-amide] | 97 | 2 | 14 | 9500

The next compounds have a lower IC50 (AR 1.0 cells [1]) than those just listed; values first:

IC50 (AR 1.0 cells [1]) [nM] | Structure (SMILES) | Potentiation Index at RMA concentration 10 nM (AR 1.0 cells [2]) | Potentiation Index at RMA concentration 30 nM (AR 1.0 cells [2]) | IC50 (AR 1.0 cells [3]) [nM]
84 | COc1cc2c(cc1OC)CN(CCc1ccc(NC(=O)c3cc4c(cc3NC(=O)c3cnc5ccccc5c3)OCO4)cc1)CC2 [compound 9578, Quinoline-3-carboxylic acid (6-{4-[2-(6,7-dimethoxy-3,4-dihydro-1H-isoquinolin-2-yl)-ethyl]-phenylcarbamoyl}-benzo[1,3]dioxoi-5-yl)-amide] | 43 | 188 | 900
15 | COc1cc2c(cc1OC)CN(CCc1ccc(NC(=O)c3ccc([N+](=O)[O-])cc3NC(=O)c3cnc4ccccc4c3)cc1)CC2 [compound 9581, Quinoline-3-carboxylic acid (2-{4-[2-(6,7-dimethoxy-3,4-dihydro-1H-isoquinolin-2-yl)-ethyl]-phenylcarbamoyl}-5-nitro-phenyl)-amide] | 90 | 300 | 310
40 | COc1cc2c(cc1OC)CN(Cc1ccc(NC(=O)c3ccccc3NC(=O)c3cnc4ccccc4c3)cc1)CC2 [compound 9585, Quinoline-3-carboxylic acid {2-[4-(6,7-dimethoxy-3,4-dihydro-1H-isoquinolin-2-ylmethyl)-phenylcarbamoyl]-phenyl}-amide] | 1.3 | 7.2 | 9200
94 | COc1cc2c(cc1OC)CN(CCc1ccc(NC(=O)c3ccc(C)cc3NC(=O)c3cnc4ccccc4c3)cc1)CC2 [compound 9588, Quinoline-3-carboxylic acid (2-{4-[2-(6,7-dimethoxy-3,4-dihydro-1H-isoquinolin-2-yl)-ethyl]-phenylcarbamoyl}-5-methyl-phenyl)-amide] | 6 | 68 | 6700
